From patent US10028961B2, “Therapeutically active compounds and their methods of use” (AGIOS PHARMACEUTICALS, INC., priority 2013, dated 2018)
Read-outs that look alike come from different tables or passages of the source.

How the values were obtained:
HT1080 cells = test: Cellular assay for IDH1m R132C inhibitors, 2-HG by LC-MS in HT1080 cells; format: cell-based; settings: Homo sapiens, HT-1080
Description: The following describes the experimental procedures that can be used to obtain data on column 5 of Table 4.
Cells (HT1080 or U87MG) are grown in T125 flasks in DMEM containing 10% FBS, 1× penicillin/streptomycin and 500 ug/mL G418 (present in U87MG cells only). They are harvested by trypsin and seeded into 96 well white bottom plates at a density of 5000 cell/well in 100 ul/well in DMEM with 10% FBS. No cells are placed in columns 1 and 12. Cells are incubated overnight at 37° C. in 5% CO2. The next day test compounds are made up at 2× the final concentration and 100 ul are added to each cell well. The final concentration of DMSO is 0.2% and the DMSO control wells are plated in row G. The plates are then placed in the incubator for 48 hours. At 48 hours, 100 ul of media is removed from each well and analyzed by LC-MS for 2-HG concentrations. The cell plate is placed back in the incubator for another 24 hours. At 72 hours post compound addition, 10 mL/plate of Promega Cell Titer Glo reagent is thawed and mixed. The cell plate is removed from the incubator and allowed to equilibrate to room temperature. Then 100 ul of Promega Cell Titer Glo reagent is added to each well of media. The cell plate is then placed on an orbital shaker for 10 minutes and then allowed to sit at room temperature for 20 minutes. The plate is then read for luminescence with an integration time of 500 ms.
HT1080 cells are maintained in RPMI containing 10% FBS, 1× penicillin/streptomycin. […] The next day compounds are prepared in 100% DMSO and then diluted in media for a final concentration of 0.2% DMSO. Media is removed from the cell plates and 200 μL of the compound dilutions are added to each well. […] The cell plates are then allowed to incubate another 24 hours.

[1] = test system: Neurosphere cells (TS603); test: Cellular assay for IDH1m R132H inhibitors, 2-HG by LC-MS in neurosphere cells (TS603); format: cell-based; settings: 2-HG in media at 48 hours
How it was run: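 TS603 neurosphere cells in NeuroCult medium were dosed with compound (0.25% DMSO final) at 37 C, 5% CO2. After 48 hours, medium 2-HG was measured by LC-MS. At 72 hours, viability was read by CellTiter-Glo luminescence.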

[2] = test system: U87MG pLVX-IDH2 R140Q-neo cells; test: U87MG pLVX-IDH2 R140Q-neo cell based assay, 2-HG by LC-MS; settings: Homo sapiens, U-87 MG
[3] = target: IDH1-R132H homodimer enzyme (Homo sapiens (Human), UniProt O75874, R132H); test: In vitro assay IDH1-R132H homodimer, NADPH depletion assay with NADPH/NADP preincubation; format: biochemical; settings: 5 μM NADPH and 37.5 μM NADP
Description: The following describes the experimental procedures that can be used to obtain data on columns 3 and 5 of Table 5.
A test compound is prepared as 10 mM stock in DMSO and diluted to 50× final concentration in DMSO, for a 50 μl reaction mixture. IDH enzyme activity converting alpha-ketoglutarate to 2-hydroxyglutaric acid is measured using a NADPH depletion assay. In the assay the remaining cofactor is measured at the end of the reaction with the addition of a catalytic excess of diaphorase and resazurin, to generate a fluorescent signal in proportion to the amount of NADPH remaining. […] The reaction is started with the addition of 10 μl of Substrate Mix ([…], 5 mM alpha-ketoglutarate, in Assay Buffer) and the mixture is incubated for 60 minutes at room temperature.

[4] = target: IDH1 wt/IDH1 R132H heterodimer (Homo sapiens (Human), UniProt O75874, R132H); test: In vitro assay for IDH1m R132H inhibitors, IDH1 wt/IDH1 R132H heterodimer, NADPH depletion (diaphorase/resazurin); format: biochemical
How it was run: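 Read-out is NADPH left after α-KG reduction to 2-HG, measured via resorufin fluorescence after 5 min diaphorase/resazurin step at 25° C. Enzyme is sf9-expressed IDH1wt-his/IDH1R132H-flag heterodimer, pre-incubated 1 hr at room temperature with compound and cofactor. IC50s from DMSO stocks diluted 1:50.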

IDH2 R140Q = IDH2 R140Q (Homo sapiens (Human), UniProt P48735, R140Q); test: In vitro assay for IDH2m R140Q inhibitors, cofactor depletion assay; format: biochemical; settings: IDH2 R140Q enzyme
How it was run: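 Remaining cofactor measured fluorimetrically: diaphorase/resazurin Stop Mix […], halting the reaction. Before that, mutant enzyme and compound sat 1 h at RT, then substrate mix (4 μM NADPH, 1.6 mM α-KG) was added for 16 h at RT.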

[5] = IDH1 wt/R132H heterodimer, NADPH/NADP, not saturated, read-out: IDH1 wt/R132H NADPH/NADP IC50 not saturated
[6] = IDH1 wt/IDH1 R132H heterodimer, 300 μM NADP (saturated), read-out: IDH1 wt/R132H NADPH/NADP IC50 saturated

Chain of IDH2 R140Q (P48735 40-452 R140Q): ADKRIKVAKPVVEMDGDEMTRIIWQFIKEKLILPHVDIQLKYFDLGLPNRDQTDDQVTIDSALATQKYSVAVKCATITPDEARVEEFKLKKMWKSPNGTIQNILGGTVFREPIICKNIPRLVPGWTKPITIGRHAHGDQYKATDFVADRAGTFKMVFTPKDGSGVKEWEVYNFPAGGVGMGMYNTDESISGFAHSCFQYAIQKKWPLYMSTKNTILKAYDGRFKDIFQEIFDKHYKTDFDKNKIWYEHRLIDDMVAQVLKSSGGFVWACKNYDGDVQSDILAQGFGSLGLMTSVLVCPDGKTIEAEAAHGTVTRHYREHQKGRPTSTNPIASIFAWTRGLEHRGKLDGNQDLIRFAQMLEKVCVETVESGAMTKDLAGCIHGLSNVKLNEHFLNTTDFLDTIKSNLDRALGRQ
Chain of IDH1-R132H homodimer enzyme (O75874 whole entry R132H): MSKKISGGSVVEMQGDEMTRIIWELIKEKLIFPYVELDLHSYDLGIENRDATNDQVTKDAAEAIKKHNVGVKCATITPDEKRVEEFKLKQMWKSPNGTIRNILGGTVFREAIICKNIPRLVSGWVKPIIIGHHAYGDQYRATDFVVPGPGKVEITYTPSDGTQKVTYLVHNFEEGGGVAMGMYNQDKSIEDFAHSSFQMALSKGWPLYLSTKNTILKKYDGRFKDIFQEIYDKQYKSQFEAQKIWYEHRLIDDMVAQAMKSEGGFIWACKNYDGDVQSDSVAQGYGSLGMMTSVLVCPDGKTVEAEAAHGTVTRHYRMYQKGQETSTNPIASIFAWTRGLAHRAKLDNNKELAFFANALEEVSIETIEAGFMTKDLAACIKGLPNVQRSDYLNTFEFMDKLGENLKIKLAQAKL
Chain of IDH1 wt/IDH1 R132H heterodimer (O75874 whole entry R132H): as above
Chain of IDH1 wt/IDH1 R132H heterodimer (O75874 whole entry, stated change not applied): as the sequence (O75874 whole entry R132H) above, with H132R counted along it

SMILES	IC50 (HT1080 cells) [nM]	IC50 [1] [nM]	IC50 [2] [nM]	IC50 [3] [nM]	IC50 [4, 5] [nM]	IC50 (IDH2 R140Q) [nM]	IC50 [4, 6] [nM]
C[C@@H](Nc1nc(N[C@H](C)C(F)(F)F)nc(-c2cccc(Cl)n2)n1)C(F)(F)F [Compound 101]	< 50	< 50	< 50	–	–	–	–
CC[C@@H](Nc1nc(N[C@H](CC)C(F)(F)F)nc(-c2cccc(Cl)n2)n1)C(F)(F)F [Compound 104]	< 50	–	< 50	< 50	< 50	< 50	–
C[C@@H](Nc1nc(N[C@H](C)C(F)(F)F)nc(-c2csc(C(F)(F)F)n2)n1)C(F)(F)F [Compound 114]	< 50	< 50	< 50	–	< 50	< 50	–
C[C@H](Nc1nc(N[C@H](C)C(F)(F)F)nc(-c2cccc(Cl)n2)n1)C(F)(F)F [Compound 136]	< 50	< 50	< 50	–	–	–	–
C[C@H](Nc1nc(N[C@@H](C)C(F)(F)F)nc(-c2cccc(Cl)n2)n1)C(F)(F)F [Compound 142]	< 50	< 50	< 50	–	–	–	–
Nc1ccc(F)c(-c2nc(Nc3cc(F)cc(F)c3)nc(NC3CCC(F)(F)C3)n2)n1 (centres unmarked) [Compound 153]	50 to 100	–	< 50	< 50	< 50	< 50	–
COc1ccc2c(c1)CC(Nc1nc(NC3CCC(F)(F)C3)nc(-c3cccc(C(F)(F)F)n3)n1)C2 (centres unmarked) [Compound 166]	100 to 1000	< 50	–	–	< 50	–	–
FC1(F)CCC(Nc2nc(NC3Cc4cccnc4C3)nc(-c3cccc(C(F)(F)F)n3)n2)C1 (centres unmarked) [Compound 188]	< 50	< 50	–	–	< 50	–	–
CC(F)(F)c1cccc(-c2nc(NC3CCC(F)(F)CC3)nc(NC3CCC(F)(F)CC3)n2)n1 [Compound 218]	100 to 1000	< 50	< 50	–	< 50	< 50	–
CC(C)(O)CNc1nc(Nc2cc(F)cc(F)c2)nc(-n2ccc(C(F)(F)F)n2)n1 [Compound 235]	100 to 1000	< 50	< 50	–	< 50	< 50	–
CC(C)(O)CNc1nc(Nc2cc(F)cc(Cl)c2)nc(-c2cccc(C(C)(F)F)n2)n1 [Compound 236]	> 1000	–	< 50	100 to 1000	< 50	< 50	–
CC(C)(O)CNc1nc(NC2CCC(F)(F)CC2)nc(-c2cccc(C(F)(F)F)n2)n1 [Compound 287]	> 1000	–	100 to 1000	> 1000	100 to 1000	100 to 1000	–
C[C@@H](Nc1nc(Nc2ccnc(C3(C#N)CC3)c2)nc(-c2cncc(C(F)(F)F)n2)n1)C(F)(F)F [Compound 377]	100 to 1000	< 50	< 50	–	–	< 50	< 50
N#CC1(c2cc(Nc3nc(N[C@@H]4CCC(F)(F)C4)nc(-c4cncc(C(F)(F)F)n4)n3)ccn2)CC1 [Compound 378]	50 to 100	< 50	< 50	–	–	< 50	< 50
N#Cc1cc(Nc2nc(N[C@H]3CCC(F)(F)C3)nc(-n3ccc(C(F)(F)F)n3)n2)ccn1 [Compound 381]	100 to 1000	< 50	< 50	–	–	< 50	< 50
CC(F)(F)c1cccc(-c2nc(Nc3ccnc(C4(C#N)CC4)c3)nc(NC3CCC(F)(F)C3)n2)n1 (centres unmarked) [Compound 384]	100 to 1000	< 50	< 50	–	–	< 50	< 50

SMILES	IC50 (HT1080 cells) [nM]	IC50 [1] [nM]	IC50 [2] [nM]	IC50 [3] [nM]	IC50 [4, 5] [nM]	IC50 (IDH2 R140Q) [nM]	IC50 [4, 6] [nM]
N#CC1(c2cc(Nc3nc(NC4CC5(C4)CC(F)(F)C5)nc(-c4cncc(C(F)(F)F)n4)n3)ccn2)CC1 [Compound 385]	100 to 1000	< 50	< 50	–	–	< 50	50 to 100
C[C@@H](Nc1nc(N[C@H](C)C(F)(F)F)nc(-c2cncc(C(F)(F)F)n2)n1)C(F)(F)F [Compound 386]	< 50	< 50	< 50	–	–	< 50	< 50
FC1(F)CC(Nc2nc(Nc3ccnc(C(F)(F)F)c3)nc(-c3nc(C(F)(F)F)cs3)n2)C1 [Compound 388]	50 to 100	< 50	< 50	–	–	< 50	< 50
FC1(F)CC(Nc2nc(Nc3ccnc(C(F)(F)F)c3)nc(-c3cncc(C(F)(F)F)n3)n2)C1 [Compound 390]	100 to 1000	< 50	< 50	–	–	< 50	50 to 100
N#CC1(c2cc(Nc3nc(NC4CCC(F)(F)CC4)nc(-c4cncc(C(F)(F)F)n4)n3)ccn2)CC1 [Compound 394]	100 to 1000	< 50	< 50	–	–	< 50	< 50
FC(F)c1csc(-c2nc(NC3CCC(F)(F)C3)nc(NC3CCC(F)(F)C3)n2)n1 (centres unmarked) [Compound 402]	< 50	< 50	< 50	–	–	< 50	50 to 100
FC(F)c1csc(-c2nc(NC3CC(F)(F)C3)nc(NC3CC(F)(F)C3)n2)n1 [Compound 403]	< 50	< 50	< 50	–	–	< 50	< 50
CC(Nc1nc(NC(C)C(F)(F)F)nc(-c2nc(C(F)(F)F)cs2)n1)C(F)(F)F (centres unmarked) [Compound 404]	< 50	< 50	< 50	–	–	< 50	< 50
FC1(F)CCC(Nc2nc(Nc3cncc(C(F)(F)F)c3)nc(-c3cccc(C(F)(F)F)n3)n2)C1 (centres unmarked) [Compound 405]	50 to 100	< 50	< 50	–	–	< 50	50 to 100
FC(F)(F)c1cc(Nc2nc(NCC3CC3)nc(-n3ccc(C(F)(F)F)n3)n2)ccn1 [Compound 407]	100 to 1000	< 50	< 50	–	–	< 50	100 to 1000
FC(F)c1cncc(-c2nc(NC3CCC(F)(F)C3)nc(NC3CCC(F)(F)C3)n2)n1 (centres unmarked) [Compound 408]	< 50	< 50	< 50	–	–	< 50	< 50
FC(F)c1cncc(-c2nc(NC3CC(F)(F)C3)nc(NC3CC(F)(F)C3)n2)n1 [Compound 409]	< 50	< 50	< 50	–	–	< 50	< 50
FC(F)c1ccnc(-c2nc(NC3CC(F)(F)C3)nc(NC3CC(F)(F)C3)n2)n1 [Compound 411]	100 to 1000	< 50	50 to 100	–	–	50 to 100	100 to 1000
FC(F)c1ccnc(-c2nc(NC3CCC(F)(F)C3)nc(NC3CCC(F)(F)C3)n2)n1 (centres unmarked) [Compound 412]	100 to 1000	< 50	50 to 100	–	–	–	100 to 1000
Fc1cc(F)cc(Nc2nc(NC3CC(F)(F)C3)nc(-c3nc(C(F)(F)F)cs3)n2)c1 [Compound 413]	100 to 1000	–	< 50	< 50	–	–	< 50
